Reference: ChEMBL document CHEMBL5653631, “A Potent and Selective ULK1 Inhibitor Suppresses Autophagy and Sensitizes Cancer Cells to Nutrient Stress” (iScience, 2018)
One block for each compound: values may come before it.

Tests used:
[1] = target: Tyrosine-protein kinase HCK (Homo sapiens) (UniProt P08631); test: Inhibition of human recombinant HCK at 500 nM in presence of ATP by radiometric assay relative to control
[2] = target: T1, Serine/threonine-protein kinase 17A (Homo sapiens) (UniProt Q9UEE5); test: Inhibition of human recombinant DRAK1 at 500 nM related to control ULK1
T1 sequence (whole entry): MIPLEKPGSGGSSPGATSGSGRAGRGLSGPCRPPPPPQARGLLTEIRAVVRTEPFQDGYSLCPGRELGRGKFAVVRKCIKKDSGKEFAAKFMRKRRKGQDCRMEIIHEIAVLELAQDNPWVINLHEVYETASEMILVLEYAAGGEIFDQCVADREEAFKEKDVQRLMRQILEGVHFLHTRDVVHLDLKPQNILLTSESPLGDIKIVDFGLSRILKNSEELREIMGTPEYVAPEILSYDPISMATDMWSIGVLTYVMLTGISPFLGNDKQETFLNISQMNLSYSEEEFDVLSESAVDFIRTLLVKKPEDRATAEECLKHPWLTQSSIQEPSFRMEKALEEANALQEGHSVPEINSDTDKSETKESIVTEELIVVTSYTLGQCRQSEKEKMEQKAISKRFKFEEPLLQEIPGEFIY

[3] = target: T2, Serine/threonine-protein kinase 3 (Homo sapiens) (UniProt Q13188); test: Inhibition of human recombinant MST2 at 500 nM related to control ULK1
T2 sequence (whole entry): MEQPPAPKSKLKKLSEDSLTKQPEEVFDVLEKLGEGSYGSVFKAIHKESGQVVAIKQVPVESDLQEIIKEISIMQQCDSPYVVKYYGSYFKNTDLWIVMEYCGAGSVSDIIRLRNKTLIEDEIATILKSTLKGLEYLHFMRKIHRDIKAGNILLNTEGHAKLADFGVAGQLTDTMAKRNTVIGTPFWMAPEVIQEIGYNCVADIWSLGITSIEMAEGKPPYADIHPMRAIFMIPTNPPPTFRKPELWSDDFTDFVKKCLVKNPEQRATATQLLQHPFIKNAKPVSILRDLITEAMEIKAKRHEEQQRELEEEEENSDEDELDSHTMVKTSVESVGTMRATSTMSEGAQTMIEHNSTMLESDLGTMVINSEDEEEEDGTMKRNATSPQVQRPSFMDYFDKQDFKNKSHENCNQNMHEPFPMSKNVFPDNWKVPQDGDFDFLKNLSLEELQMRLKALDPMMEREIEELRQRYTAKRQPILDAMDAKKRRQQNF

[4] = target: Tyrosine-protein kinase Fer (Homo sapiens) (UniProt P16591); test: Inhibition of human recombinant FER at 40 nM in presence of ATP by radiometric assay relative to control
[5] = target: TGF-beta receptor type-2 (Homo sapiens) (UniProt P37173); test: Inhibition of human recombinant TGFbR2 at 40 nM related to control ULK1
[6] = target: Tyrosine-protein kinase JAK1 (Homo sapiens) (UniProt P23458); test: Inhibition of human recombinant JAK1 at 15 nM in presence of ATP by radiometric assay relative to control
[7] = target: T3, Dual specificity protein kinase TTK (Homo sapiens) (UniProt P33981); test: Inhibition of human recombinant TTK at 15 nM in presence of ATP by radiometric assay relative to control
T3 sequence (whole entry): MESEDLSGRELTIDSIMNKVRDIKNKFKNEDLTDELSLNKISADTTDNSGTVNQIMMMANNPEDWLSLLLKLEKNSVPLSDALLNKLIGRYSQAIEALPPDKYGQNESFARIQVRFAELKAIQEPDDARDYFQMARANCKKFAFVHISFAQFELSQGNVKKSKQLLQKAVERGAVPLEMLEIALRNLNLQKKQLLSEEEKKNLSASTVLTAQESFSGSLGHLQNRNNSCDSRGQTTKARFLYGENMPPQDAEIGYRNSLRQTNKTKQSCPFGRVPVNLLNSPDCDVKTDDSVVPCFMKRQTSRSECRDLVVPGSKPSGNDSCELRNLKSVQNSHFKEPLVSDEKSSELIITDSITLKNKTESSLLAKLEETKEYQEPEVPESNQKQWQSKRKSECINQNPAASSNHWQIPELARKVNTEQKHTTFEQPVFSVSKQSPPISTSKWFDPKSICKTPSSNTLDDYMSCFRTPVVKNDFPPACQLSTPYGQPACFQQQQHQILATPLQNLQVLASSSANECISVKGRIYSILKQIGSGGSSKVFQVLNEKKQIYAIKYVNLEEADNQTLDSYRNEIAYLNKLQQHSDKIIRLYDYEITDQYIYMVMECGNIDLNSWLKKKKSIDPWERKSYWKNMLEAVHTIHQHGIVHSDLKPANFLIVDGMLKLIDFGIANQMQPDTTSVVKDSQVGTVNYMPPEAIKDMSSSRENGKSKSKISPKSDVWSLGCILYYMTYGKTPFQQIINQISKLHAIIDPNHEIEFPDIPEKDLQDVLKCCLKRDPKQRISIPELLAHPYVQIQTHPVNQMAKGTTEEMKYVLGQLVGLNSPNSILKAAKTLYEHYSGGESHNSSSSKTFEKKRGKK

Chain of Tyrosine-protein kinase JAK1 (Homo sapiens) (P23458 whole entry): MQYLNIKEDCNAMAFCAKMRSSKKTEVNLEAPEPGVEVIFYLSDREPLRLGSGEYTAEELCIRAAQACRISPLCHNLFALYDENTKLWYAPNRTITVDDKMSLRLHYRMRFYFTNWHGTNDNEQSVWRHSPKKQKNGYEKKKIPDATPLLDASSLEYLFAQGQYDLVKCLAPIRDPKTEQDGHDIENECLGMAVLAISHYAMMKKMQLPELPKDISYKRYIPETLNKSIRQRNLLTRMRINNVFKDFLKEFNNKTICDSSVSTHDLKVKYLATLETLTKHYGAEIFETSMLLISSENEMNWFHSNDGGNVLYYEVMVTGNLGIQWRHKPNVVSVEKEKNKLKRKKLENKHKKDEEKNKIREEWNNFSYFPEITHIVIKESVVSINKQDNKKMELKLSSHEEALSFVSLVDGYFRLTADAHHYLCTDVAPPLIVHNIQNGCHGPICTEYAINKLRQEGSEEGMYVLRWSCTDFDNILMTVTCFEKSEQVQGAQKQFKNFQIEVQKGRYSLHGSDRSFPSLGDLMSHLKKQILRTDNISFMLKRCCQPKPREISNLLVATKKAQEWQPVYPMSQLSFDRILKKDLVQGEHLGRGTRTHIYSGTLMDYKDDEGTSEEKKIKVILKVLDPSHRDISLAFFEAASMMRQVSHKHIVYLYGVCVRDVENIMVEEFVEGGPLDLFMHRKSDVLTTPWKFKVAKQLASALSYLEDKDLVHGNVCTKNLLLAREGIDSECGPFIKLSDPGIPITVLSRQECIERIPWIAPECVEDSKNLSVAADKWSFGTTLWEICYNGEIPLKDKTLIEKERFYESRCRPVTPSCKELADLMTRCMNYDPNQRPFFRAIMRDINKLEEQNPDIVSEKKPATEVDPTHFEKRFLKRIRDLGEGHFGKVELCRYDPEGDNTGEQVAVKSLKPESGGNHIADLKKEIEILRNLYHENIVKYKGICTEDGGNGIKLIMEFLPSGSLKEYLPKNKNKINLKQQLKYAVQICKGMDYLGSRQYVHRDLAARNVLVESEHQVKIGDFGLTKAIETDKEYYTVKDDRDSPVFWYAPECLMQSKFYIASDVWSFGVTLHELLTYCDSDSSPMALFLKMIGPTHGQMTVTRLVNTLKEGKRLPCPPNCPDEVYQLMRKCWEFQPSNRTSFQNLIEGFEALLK
Chain of TGF-beta receptor type-2 (Homo sapiens) (P37173 whole entry): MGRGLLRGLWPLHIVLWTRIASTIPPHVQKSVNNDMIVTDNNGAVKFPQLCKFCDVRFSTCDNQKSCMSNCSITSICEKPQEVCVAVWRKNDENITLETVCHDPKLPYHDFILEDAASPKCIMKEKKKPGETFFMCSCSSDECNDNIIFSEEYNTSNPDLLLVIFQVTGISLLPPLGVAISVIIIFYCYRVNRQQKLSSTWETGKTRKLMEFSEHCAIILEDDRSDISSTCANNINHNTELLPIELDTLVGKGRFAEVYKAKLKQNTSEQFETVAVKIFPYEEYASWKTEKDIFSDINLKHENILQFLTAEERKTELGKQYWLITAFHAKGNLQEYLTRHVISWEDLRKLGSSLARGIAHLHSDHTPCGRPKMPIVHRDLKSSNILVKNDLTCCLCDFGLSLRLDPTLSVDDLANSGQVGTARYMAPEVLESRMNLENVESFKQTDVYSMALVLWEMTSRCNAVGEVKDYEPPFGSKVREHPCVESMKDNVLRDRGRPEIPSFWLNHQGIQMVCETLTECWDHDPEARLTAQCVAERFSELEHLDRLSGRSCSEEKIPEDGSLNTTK
Chain of Tyrosine-protein kinase HCK (Homo sapiens) (P08631 2-526 limits assumed): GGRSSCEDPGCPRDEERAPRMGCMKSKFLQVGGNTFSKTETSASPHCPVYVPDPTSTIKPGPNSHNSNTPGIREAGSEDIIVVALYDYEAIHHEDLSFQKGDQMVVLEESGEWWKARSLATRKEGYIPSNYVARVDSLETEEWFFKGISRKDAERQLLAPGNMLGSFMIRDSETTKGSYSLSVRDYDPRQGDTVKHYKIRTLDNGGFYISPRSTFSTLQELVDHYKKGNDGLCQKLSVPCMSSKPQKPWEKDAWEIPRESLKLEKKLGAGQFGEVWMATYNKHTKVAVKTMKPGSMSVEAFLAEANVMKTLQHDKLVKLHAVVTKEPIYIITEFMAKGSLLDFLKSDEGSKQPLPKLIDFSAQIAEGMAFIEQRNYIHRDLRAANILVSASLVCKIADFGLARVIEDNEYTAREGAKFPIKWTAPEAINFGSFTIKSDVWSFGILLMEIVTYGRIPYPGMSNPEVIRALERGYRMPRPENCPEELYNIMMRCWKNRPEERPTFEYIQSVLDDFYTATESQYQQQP
Chain of Tyrosine-protein kinase Fer (Homo sapiens) (P16591 whole entry, looked up): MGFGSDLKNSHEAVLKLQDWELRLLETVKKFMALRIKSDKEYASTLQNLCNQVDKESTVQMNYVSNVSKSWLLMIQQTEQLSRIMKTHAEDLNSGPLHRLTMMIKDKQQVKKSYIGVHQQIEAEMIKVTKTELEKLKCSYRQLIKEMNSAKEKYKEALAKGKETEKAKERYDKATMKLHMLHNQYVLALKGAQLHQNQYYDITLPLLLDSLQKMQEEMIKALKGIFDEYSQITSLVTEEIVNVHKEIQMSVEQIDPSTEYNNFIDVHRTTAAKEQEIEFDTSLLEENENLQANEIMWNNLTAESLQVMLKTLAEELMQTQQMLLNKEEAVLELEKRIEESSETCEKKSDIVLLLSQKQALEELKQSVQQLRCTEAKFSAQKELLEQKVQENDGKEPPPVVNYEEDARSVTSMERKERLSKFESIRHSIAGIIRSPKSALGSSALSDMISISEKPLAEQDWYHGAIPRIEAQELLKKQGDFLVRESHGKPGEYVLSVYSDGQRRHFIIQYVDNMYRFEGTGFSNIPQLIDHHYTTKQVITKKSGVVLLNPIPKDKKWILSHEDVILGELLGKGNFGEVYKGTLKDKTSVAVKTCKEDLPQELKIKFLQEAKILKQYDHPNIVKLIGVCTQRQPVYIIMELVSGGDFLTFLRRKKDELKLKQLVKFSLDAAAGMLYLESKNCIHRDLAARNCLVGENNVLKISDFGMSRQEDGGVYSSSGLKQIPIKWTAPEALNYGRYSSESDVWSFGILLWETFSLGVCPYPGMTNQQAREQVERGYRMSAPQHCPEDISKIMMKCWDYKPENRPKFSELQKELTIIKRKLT

inhibition [1]: 17%
fold change (FC) [2]: 0
fold change (FC) [3]: 0
Compound: CNC(=O)c1ccccc1Oc1nc(Nc2cc(OC)c(OC)c(OC)c2)ncc1Br

inhibition [4]: 0%
fold change (FC) [5]: 0.64
Compound: O=C(N[C@@H](C1CC1)C(F)(F)F)c1cc(-c2cnn3cc(-c4ccc(F)cc4)cnc23)cs1

inhibition [6]: 0%
inhibition [7]: 22%
Compound: CC(C)[C@H](NC(=O)c1cc(-c2cnn3cc(-c4ccc(OCCN5CCCCC5)cc4)cnc23)cs1)C(F)(F)F
